# System: corneal surface after BAC-induced toxicity
# Experiment: In vivo fluorescence imaging of the cornea after BAC-induced corneal toxicity, compared with lissamine green staining
# Design: species or system rat
# Conditions: 0.1% and 0.2% BAC twice daily for 7 days
# Procedure: Adult Wistar rats were given topical instillation of 0.2, 0.1 and 0.02% BAC in 0.9% balanced salt solution (BSS) twice daily for 7 days. External ocular examination was performed and lissamine green staining was used to evaluate the corneal damage prior to and after experiments. One hour after topical Zn-DPA 480 administration, convention light and fluorescence images were taken on animals.
# There was no remarkable change on the cornea after administration of BSS. Results are illustrated in FIG. 3.
structure (smiles),measurement,value
CN(C)c1ccc(C(=C2C=CC(=[N+](C)C)C=C2)c2c(O)c(S(=O)(=O)[O-])cc3cc(S(=O)(=O)[O-])ccc23)cc1.[Na+] [lissamine green],Corneal staining,positive lissamine green staining
